# Reference: US8153589B2, “JNK3 as a target for the treatment of angiogenesis-related diseases” (The University of North Carolina at Chapel Hill, priority 2009, dated 2012)
# Tests used:
# [1] = test system: eNOS; assay: eNOS Ser 1177 phosphorylation, Western blot in BAECs; assay type: cell-based, bovine
# Method: (§1) Cells were harvested in lysis buffer (1% Triton X-100, 50 mM Tris, pH 7.4, 150 mM NaCl, 1 mM Na3VO4 and 0.1% protease inhibitor tablet; Roche) and clarified by centrifugation at 16,000 g. Equal amounts of proteins were incubated with a specific antibody overnight at 4° C. with gentle rotation. Protein A/G Plus-agarose beads (Santa Cruz Biotechnology, Santa Cruz, Calif.) were used to pull down the antibody complexes. Afterward, beads were washed with lysis buffer, and immune complexes were separated by SDS-PAGE. Total cell lysates were separated by SDS-PAGE and transferred to nitrocellulose membranes.
# The degree of SDF-1α-induced activation of eNOS was examined in bovine aortic endothelial cells (BAECs) by monitoring phosphorylation of the Ser 1177 activation site in eNOS. […] Phosphorylation of Ser 1177 peaked at 5 minutes after SDF-1α stimulation (FIG. 1A), and increased in a dose-dependent fashion over a SDF-1α concentration range of 50 ng/ml to 500 ng/ml (FIG. 1B), which approximates physiologically relevant SDF-1α concentrations.
# [2] = test system: JNK3; assay: JNK activation (phospho-JNK Western blot) in BAECs; assay type: cell-based, bovine; conditions: BAECs
# Method: as §1
# Mitogen-activated protein kinases (MAPKs), including ERK1/2 and p38, have been reported to enhance angiogenesis (20, 21). However, the role of JNK in angiogenesis remains controversial, with studies showing both positive and negative outcomes of JNK activation. In order to determine which MAPKs are involved in SDF-1α-induced endothelial cell migration, we screened the activities and expression levels of ERK1/2, p38 and JNK following treatment of BAECs with SDF-1α. […] SDF-1α activated both JNK and ERK1/2 in a dose-dependent manner (FIG. 2B). […] Protein and mRNA for all three JNK isoforms, JNK1, JNK2 and JNK3, can be found in BAECs (FIGS. 5, A&B). In order to determine which JNK protein(s) was activated by SDF-1α in these cells we used a previously described assay (22). Exogenous JNK1, JNK2 and JNK3 proteins containing Flag or GFP-epitopes were transiently expressed in BAECs and their activities were determined via western blotting with a phospho-JNK antibody following SDF-1α treatment. […] To confirm the finding that JNK3 is the only JNK entity activated by SDF-1α, we transfected cells with siRNAs for each of the JNK proteins and then tested the effect of each siRNA for the ability to suppress SDF-1α-induced JNK activation. […] Because JNK3 was the only SDF-1α-activated JNK in endothelial cells in our studies (FIG. 2C & FIG. 5, C), we consider the phospho-JNK signals in western blots with anti-phospho-JNK antibody as the signals for activated JNK3.
# [3] = test system: ERK1/2; assay: ERK1/2 activation, Western blot in BAECs; assay type: cell-based, bovine; conditions: BAECs, SDF-1α 50 ng/ml
# Method: as §1
# (§2) Mitogen-activated protein kinases (MAPKs), including ERK1/2 and p38, have been reported to enhance angiogenesis (20, 21). However, the role of JNK in angiogenesis remains controversial, with studies showing both positive and negative outcomes of JNK activation. In order to determine which MAPKs are involved in SDF-1α-induced endothelial cell migration, we screened the activities and expression levels of ERK1/2, p38 and JNK following treatment of BAECs with SDF-1α. […] SDF-1α activated both JNK and ERK1/2 in a dose-dependent manner (FIG. 2B). […] Exogenous JNK1, JNK2 and JNK3 proteins containing Flag or GFP-epitopes were transiently expressed in BAECs and their activities were determined via western blotting with a phospho-JNK antibody following SDF-1α treatment. […]
# [4] = test system: p38; assay: p38 activation, Western blot in BAECs; assay type: cell-based, bovine; conditions: SDF-1α treatment
# Method: as §1, §2
# [5] = test system: MKP7; assay: Biotin switch assay, MKP7 nitrosylation in BAECs transfected with Flag-MKP7; assay type: cell-based; conditions: 50 ng/ml SDF-1alpha for 5 minutes
# Method: Experiments were performed following the methods previously described by Dr. Stamler's laboratory (39). Cell lysates containing Flag or Myc-tagged MKP7 protein were treated with the indicated concentrations of GSNO followed by the addition of 2 volumes of HEN buffer and freshly prepared S-methyl methanethiosulfonate (10% v/v in N,N-dimethylformamide) and SDS (25% v/v) to final concentrations of 0.1 and 2.5%, respectively. Following frequent vortexing at 50° C. for 1 hour, proteins were precipitated with 3 volumes of acetone at −20° C. for 30 min. The proteins were recovered by centrifugation at 5,000×g for 5 min, followed by gentle rinsing of the pellet with 3×1 ml acetone. The pellets were then resuspended in 240 μl of HEN buffer containing 1% SDS. The resuspended protein was precipitated, rinsed and resuspended once more. For labeling, the blocked samples were mixed with 0.1 volume of biotin-HPDP (2.5 mg/ml in Me2SO) and 0.1 volume of HEN (control) or freshly prepared sodium Ascorbic acid in HEN buffer. […] The eluted mixture was then analyzed by SDS-PAGE, followed by immunoblotting with anti-Flag-HRP (1:5000) or antibodies.
# As a first step, we investigated whether SDF-1α treatment of BAECs would result in S-nitrosylation of MKP7. […] Next we used JNK3 phosphorylation as a readout for determining whether or not SDF-1α activation of JNK3 could be inhibited by MKP7. […]
substance,measurement,setting,value
SDF-1α,time of peak phosphorylation of eNOS Ser 1177 after stimulation,[1]; 50 ng/ml SDF-1alpha,5 min
same,eNOS phosphorylation (Ser 1177),[1]; 50 ng/ml to 500 ng/ml SDF-1α,time- and dose-dependent manner
same,"phosphorylation of exogenous Flag/GFP-tagged JNK1, JNK2, JNK3",[2]; 50 ng/ml SDF-1alpha for 5 minutes,only phosphorylation of JNK3 (but not JNK1 or JNK2) was increased
same,JNK activity,[2]; SDF-1α 50 ng/ml,potently induced
same,ERK1/2 activity,[3],potently induced
same,p38 activation,[4],not significantly activated
same,MKP7 nitrosylation in BAECs,[5],increased
